10 molecules from US7300930B2, “Therapeutic acridone and acridine compounds” (Cancer Research Technology Limited, priority 2000, dated 2007) can be followed below.

A short description of data set [1]: Growth inhibition, sulforhodamine B (SRB) assay, A431. Particulars: human, A431 cervix carcinoma cells, A431, 96 hr incubation, tested as salts, read-out: Cytotoxicity - IC50 A431. It is filed as cell-based. Here is the method: (§1) Growth inhibition was measured in three human ovarian carcinoma cell lines (A2780, CH1, and SKOV-3) and one human cervix carcinoma cell line (A431) using the sulforhodamine B (SRB) assay. Briefly, between 3000 and 6000 cells were seeded into the wells of 96-well microtiter plates and allowed to attach overnight. Compounds (acid addition and quaternary dimethiodide salts) were dissolved at 500 μM in water and immediately added to wells in quadruplicate at final concentrations of 0.05, 0.25, 1, 5 and 25 μM. Following an incubation period of 96 hr, remaining cells were fixed with ice-cold 10% w/v trichloroacetic acid (30 min) and stained with 0.4% SRB in 1% v/v acetic acid (15 min). Mean absorbance at 540 nm for each drug concentration was expressed as a percentage of the control untreated well absorbance, and IC50 values (concentration required to inhibit cell growth by 50%) were determined for each agent.

A short description of data set [2]: Growth inhibition, sulforhodamine B (SRB) assay, A2780. It is filed as cell-based. As to conditions: human, A2780 ovarian carcinoma cells, A2780, 96 hr incubation, tested as salts, read-out: Cytotoxicity - IC50 A2780. As to the method:
as §1

Data set [3] can be described thus: Growth inhibition, sulforhodamine B (SRB) assay, SKOV-3. Type of data set: cell-based. Particulars: human, SKOV-3 ovarian carcinoma cells, SKOV-3, 96 hr incubation, tested as salts, read-out: Cytotoxicity - IC50 SKOV-3. Here is the method:
as §1
A general note: The SRB assay estimates cell density from bound dye.

For data set [4], the target named is telomerase (Homo sapiens, UniProt O14746). As to the kind of experiment: Modified telomeric repeat amplification protocol (TRAP) assay, cell-free. Type of data set: biochemical. As to conditions: extracts from A2780 cells, tested as salts, read-out: telIC50 (Telomerase Inhibitory Activity). As to the method: The ability of compounds to inhibit telomerase in a cell-free assay was assessed with a modified TRAP assay using extracts from exponentially growing A2780 human ovarian carcinoma cells. The TRAP assay was performed in 2 steps: (a) telomerase-mediated extension of the forward primer (TS: 5′-AATCCGTCGAGCAGAGTT (SEQ ID NO:3), Oswel Ltd., Southampton, UK) contained in a 40 µL reaction mix comprising TRAP buffer (20 mM Tris-HCl (pH 8.3), 68 mM KCl, 1.5 mM MgCl2, 1 mM EGTA, 0.05% v/v Tween 20), 0.05 μg bovine serum albumin, 50 μM of each deoxynucleotide triphosphate, 0.1 μg TS primer, and 3 μCi of [α-^32P]dCTP (Amersham plc, UK). Protein (40 ng or 20 ng) was then incubated with the reaction mix+agent (acid addition and quaternary dimethiodide salts) at final concentrations of up to 50 μM for 20 min at 25° C. A lysis buffer (no protein) control, heat-inactivated protein control, and 50% protein (20 ng or 10 ng) control were included in each assay; and (b) while heating at 80° C. in a PCR block of a thermal cycler (Hybaid, UK) for 5 min to inactivate telomerase activity, 0.1 μg of reverse CX primer (3′-[…]-5′ (SEQ ID NO:4)) and 2 Units of Taq DNA polymerase (“red hot”, Advanced Biotechnologies) were added. A 3-step PCR was then performed: 94° C. for 30 s, 50° C. for 30 s, and 72° C. for 1 min for 31 cycles. Telomerase-extended PCR products in the presence or absence of compounds were then determined either by electrophoretic separation using 8% w/w acrylamide denaturing gels and analysis by phosphorimaging or autoradiography, or by harvesting on Whatman filters (25 mm glass microfibre) and analysis by liquid scintillation counting.

Data set [5] can be described thus: Growth inhibition, sulforhodamine B (SRB) assay, CH1. Type of data set: cell-based. Particulars: human, CH1 ovarian carcinoma cells, CH1, 96 hr incubation, tested as salts, read-out: Cytotoxicity - IC50 CH1. As to the method:
as §1

Structures are written as SMILES.

Chain of telomerase (O14746 whole entry): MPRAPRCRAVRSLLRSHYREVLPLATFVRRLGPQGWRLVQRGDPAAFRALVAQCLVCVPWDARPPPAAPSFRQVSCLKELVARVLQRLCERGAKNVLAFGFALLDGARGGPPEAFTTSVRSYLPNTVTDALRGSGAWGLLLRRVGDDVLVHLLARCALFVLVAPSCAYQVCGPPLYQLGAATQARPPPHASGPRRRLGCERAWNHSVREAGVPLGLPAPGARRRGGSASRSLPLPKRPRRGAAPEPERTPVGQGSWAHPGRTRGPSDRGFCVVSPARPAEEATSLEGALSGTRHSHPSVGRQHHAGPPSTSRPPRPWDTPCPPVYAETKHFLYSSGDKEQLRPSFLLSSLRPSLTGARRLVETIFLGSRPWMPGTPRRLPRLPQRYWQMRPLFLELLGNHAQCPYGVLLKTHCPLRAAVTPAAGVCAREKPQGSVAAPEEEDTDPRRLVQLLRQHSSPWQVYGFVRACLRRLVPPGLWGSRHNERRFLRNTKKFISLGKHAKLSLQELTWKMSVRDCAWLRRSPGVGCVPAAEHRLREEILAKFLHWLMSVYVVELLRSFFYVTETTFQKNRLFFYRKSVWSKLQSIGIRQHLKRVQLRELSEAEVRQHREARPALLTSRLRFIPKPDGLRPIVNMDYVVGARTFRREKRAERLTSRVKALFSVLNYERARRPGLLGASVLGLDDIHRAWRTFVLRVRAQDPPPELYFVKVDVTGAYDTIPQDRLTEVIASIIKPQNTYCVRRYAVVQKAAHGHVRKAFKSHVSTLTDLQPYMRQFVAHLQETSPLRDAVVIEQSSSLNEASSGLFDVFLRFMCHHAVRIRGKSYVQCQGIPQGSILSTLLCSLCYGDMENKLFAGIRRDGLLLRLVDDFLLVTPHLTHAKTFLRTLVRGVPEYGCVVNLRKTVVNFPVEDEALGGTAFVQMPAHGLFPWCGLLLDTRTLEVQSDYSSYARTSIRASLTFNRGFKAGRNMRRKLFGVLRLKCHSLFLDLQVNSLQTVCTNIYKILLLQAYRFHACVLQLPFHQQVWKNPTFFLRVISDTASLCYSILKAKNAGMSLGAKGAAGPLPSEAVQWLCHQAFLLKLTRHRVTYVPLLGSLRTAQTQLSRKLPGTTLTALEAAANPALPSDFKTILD

As to `Nc1ccc(Nc2c3ccc(NC(=O)CCN4CCCC4)cc3nc3ccc(NC(=O)CCN4CCCC4)cc23)cc1` [JH-ACI-105, N-{9-[4′-(Amino)phenylamino]}-2,6-bis(3-pyrrolidinopropionamido)acridine], the IC50 at 96 h in data set [1] is more than 25000 nM; in data set [2], more than 25000 nM; in data set [3], more than 25000 nM; in data set [5], 15800 nM. In addition, the IC50 in data set [4] was 80 nM.
As to `CC(=O)c1ccc(Nc2c3ccc(NC(=O)CCN4CCCC4)cc3nc3cc(NC(=O)CCN4CCCC4)ccc23)cc1` [JH-ACI-90, N-[9-(4′-Acetylphenylamino)]-3,6-bis(3-pyrrolidinopropionamido)acridine], the IC50 at 96 h in data set [1] came out at 2200 nM; in data set [2], 3200 nM; in data set [3], 3400 nM; in data set [5] it was 1800 nM. For the same molecule, the IC50 in data set [4] amounted to 40 nM.
For `O=C(CCN1CCCC1)Nc1ccc2c(NC3CCCCC3)c3ccc(NC(=O)CCN4CCCC4)cc3nc2c1` [JH-ACI-82, N-[9-(Cyclohexylamino)]-3,6-bis(3-pyrrolidinopropionamido)acridine], in that order: 2500 nM, 12500 nM, 1100 nM, 2800 nM and 90 nM.
`CC1(C)CC2CC(C)(CN2CCC(=O)Nc2ccc3c(=O)c4ccc(NC(=O)CCN5CC6(C)CC5CC(C)(C)C6)cc4[nH]c3c2)C1` [JH-ACO-32, 3,6-Bis[(1,3,3-trimethyl-6-azabicyclo[3.2.1]-octanamino)propionamido]-9(10H)-acridone]: the IC50 at 96 h in data set [1] turned out to be 10000 nM; in data set [2], 1900 nM; in data set [3] it was 2500 nM; in data set [5] it was 2500 nM. In addition, the IC50 in data set [4] came to 1770 nM.
Turning to `CC1CCCCN1CCC(=O)Nc1ccc2nc3ccc(NC(=O)CCN4CCCCC4C)cc3c(O)c2c1` (stereo not shown) [JM-ACO-07, 2,7-Bis[3-(2-methylpiperidino)propionamido]-9(10H)-acridone], the IC50 at 96 h in data set [1], in data set [2], in data set [3] and in data set [5] was more than 25000 nM each time. Moreover, the IC50 in data set [4] was 1970 nM.
In the case of `CSc1ccccc1Nc1c2ccc(NC(=O)CCN3CCCC3)cc2nc2cc(NC(=O)CCN3CCCC3)ccc12` [JC-ACI-4, N-{9-[2′-(Methylsulfanyl)phenylamino]}-3,6-bis(3-pyrrolidinopropionamido)acridine], the IC50 at 96 h in data set [1] was found to be 2500 nM. Besides, the IC50 in data set [4] is 150 nM.
Turning to `O=C(CCN1CCCC1)Nc1ccc2c(NCc3cccnc3)c3ccc(NC(=O)CCN4CCCC4)cc3nc2c1` [SB-ACI-13, N-[9-(Pyridin-3′-yl-methylamino)]-3,6-bis(3-pyrrolidinopropionamido)acridine], the IC50 at 96 h in data set [1], in data set [2], in data set [3] and in data set [5] was more than 25000 nM each time. Further, the IC50 in data set [4] was 66 nM.
As for `O=C(CCN1CCCCC1CO)Nc1ccc2[nH]c3ccc(NC(=O)CCN4CCCCC4CO)cc3c(=O)c2c1` (stereo not shown) [JM-ACO-12, 2,7-Bis[3-(2-hydroxymethylpiperidino)propionamido]-9(10H)-acridone], the IC50 at 96 h in data set [1], in data set [2], in data set [3] and in data set [5] was more than 25000 nM each time. Also, in data set [4], the IC50 was determined as 2330 nM.
Consider `O=C(CCN1CCCC1)Nc1ccc2c(Nc3ccc(F)cc3)c3ccc(NC(=O)CCN4CCCC4)cc3nc2c1` [JC-ACI-3, N-{9-[4′-Fluorophenylamino]}-3,6-bis(3-pyrrolidinopropionamido)acridine], for which, in data set [1], the IC50 at 96 h is 2500 nM. In addition, the IC50 in data set [4] amounted to 70 nM.
Take `CCC1CCCCN1CCC(=O)Nc1ccc2c(=O)c3ccc(NC(=O)CCN4CCCCC4CC)cc3[nH]c2c1` (stereo not shown) [BR-ACO-37, 3,6-Bis[3-(2-ethylpiperidino)propionamido]-9(10H)-acridone]: the IC50 at 96 h in data set [2] was 11800 nM; in data set [3], 10500 nM; in data set [5], 11000 nM. For the same molecule, in data set [4], the IC50 came out at 1600 nM.
